Experimental data reported in patent US7153685B2 (The Board of Trustees of the University of Illinois, priority 2002, dated 2006).

Assays:
wild type hERα = biological target: T1, wild type hERα (Homo sapiens, UniProt P03372, G400V); test: Ligand-dependent luciferase reporter transactivation in transfected HepG2 cells
T1 sequence (P03372 1-595 G400V): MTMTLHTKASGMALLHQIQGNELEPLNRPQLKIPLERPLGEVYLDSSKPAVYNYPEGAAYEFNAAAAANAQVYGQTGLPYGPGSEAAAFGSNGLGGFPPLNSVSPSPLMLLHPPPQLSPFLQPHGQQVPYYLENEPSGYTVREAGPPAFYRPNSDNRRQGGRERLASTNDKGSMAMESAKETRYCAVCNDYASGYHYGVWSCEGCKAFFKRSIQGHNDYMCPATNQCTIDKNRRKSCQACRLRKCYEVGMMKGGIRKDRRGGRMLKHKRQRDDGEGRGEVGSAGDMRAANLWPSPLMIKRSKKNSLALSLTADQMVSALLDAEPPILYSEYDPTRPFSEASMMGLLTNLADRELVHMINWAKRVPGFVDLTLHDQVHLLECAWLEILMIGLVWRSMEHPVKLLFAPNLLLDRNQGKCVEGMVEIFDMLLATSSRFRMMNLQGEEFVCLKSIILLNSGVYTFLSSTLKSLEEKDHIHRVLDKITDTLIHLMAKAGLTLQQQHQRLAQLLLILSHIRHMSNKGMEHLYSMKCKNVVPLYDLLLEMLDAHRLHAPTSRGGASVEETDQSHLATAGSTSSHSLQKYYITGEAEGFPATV
Method: (§3) HepG2 human hepatoma cells were maintained in a humidified 5% CO2 incubator at 37° C. in Dulbecco's Modified Eagle's Medium (DMEM; Sigma; St. Louis, Mo.) supplemented with 10 % charcoal-dextran-stripped fetal bovine serum (CD-FBS; Atlanta Biologicals, Inc; Atlanta, Ga.), 50,000 U/l of penicillin, and 50 mg/liter streptomycin (Life Technologies, Inc.). MCF-7 cells were routinely maintained in DMEM/Nutrient Mixture F-12 (DMEM/F12) supplemented with 10% heat-inactived FBS, 50,000 U/l of penicillin, and 50 mg/l streptomycin. CHO-S cells were maintained in DMEM/F12 supplemented with 10% heat-inactivated FBS (CD-FBS when ERs were being expressed) or 10% CD-new born calf serum (CD-NBCS, when reporter activity by different ligands were measured), 29.2 mg/l L-glutamine (Sigma), and 50,000 U/l of penicillin and 50 mg/l streptomycin.
Transient transfections in HepG2 cells was accomplished using calcium phosphate co-precipitation (Ausubel et al., 1987). Briefly, cells were plated in 12-well microplates at a density of 1×10^5 cells/well. The next day, the medium was replaced, and 2–6 hours later, precipitated calcium phosphate:DNA co-crystals were added. After 12–16 hours, the cells were shocked for 3 minutes with 20% glycerol in Tris-buffered saline, pH 7.4. Fresh medium and (if any) hormones were added. For MCF-7 and 231 cells, transient transfection was carried out using the Tfx™-20 reagent (Promega; Madison, Wis.) according to the manufacturer's direction with minor changes. Briefly, 1×10^5 cells were plated in each well of 12-well microplates one day before transfection. A 1:3 ratio of DNA to lipid was used. The DMEM/F12 medium without serum was used as carrier for the DNA-lipid mixture. After 1 hour incubation with the DNA-lipid-DMEM/F12 at 37° C., the cells were transferred to fresh DMEM/F12 supplemented with 10% CD-FBS, 50,000 U/I of penicillin, 50 mg/l streptomycin and hormones. Transfection on CHO—S cells was described as above for the preparation of ERs extraction except the medium contained 10% CD-NBCS. The cells subjected to either transfection method were harvested 48 hours post-transfection. Reporter assays were performed by lysing the cells in situ with 250 μl of passive lysis buffer (Promega). Activity was determined using the dual luciferase assay protocol according to the manufacturer's directions (Promega) on a Monolight 2010 luminometer (Analytical Luminescence, San Diego, Calif.)
Transient transfections of HepG2 cells were carried out and luciferase activity determined.

ER3M = ER3M (Homo sapiens, UniProt P03372, E203W/G400V/H216G/Q214A)
ER3M, sequence (P03372 whole entry E203W/Q214A/H216G/G400V): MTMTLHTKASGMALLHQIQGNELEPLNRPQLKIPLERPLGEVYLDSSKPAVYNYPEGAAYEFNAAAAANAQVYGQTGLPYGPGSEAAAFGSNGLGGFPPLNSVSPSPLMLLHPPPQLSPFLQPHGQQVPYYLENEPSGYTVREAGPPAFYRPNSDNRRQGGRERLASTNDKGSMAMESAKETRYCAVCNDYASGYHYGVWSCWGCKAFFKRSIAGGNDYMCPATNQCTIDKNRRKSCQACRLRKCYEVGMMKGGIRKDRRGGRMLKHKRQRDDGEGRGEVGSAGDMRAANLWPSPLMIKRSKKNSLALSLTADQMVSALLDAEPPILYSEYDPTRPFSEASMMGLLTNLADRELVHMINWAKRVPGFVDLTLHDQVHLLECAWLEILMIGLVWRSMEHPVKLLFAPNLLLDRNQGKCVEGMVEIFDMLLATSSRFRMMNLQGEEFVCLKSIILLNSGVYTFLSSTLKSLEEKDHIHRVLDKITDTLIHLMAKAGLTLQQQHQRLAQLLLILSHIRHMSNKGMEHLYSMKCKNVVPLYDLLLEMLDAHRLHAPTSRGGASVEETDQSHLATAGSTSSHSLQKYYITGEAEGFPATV

ER 4.3 = ER 4.3 (Homo sapiens, UniProt P03372, E203W/G215R/G400V/H216P/N217T/Q214V)
ER 4.3, sequence (P03372 whole entry E203W/Q214V/G215R/H216P/N217T/G400V): as the sequence (P03372 whole entry E203W/Q214A/H216G/G400V) above, with A214V, G215R, G216P, N217T counted along it
Method: as §3
Transient transfections in HepG2 cells was accomplished using calcium phosphate co-precipitation (Ausubel et al., 1987). Briefly, cells were plated in 12-well microplates at a density of 1×10^5 cells/well. The next day, the medium was replaced, and 2–6 hours later, precipitated calcium phosphate:DNA co-crystals were added. […] Activity was determined using the dual luciferase assay protocol according to the manufacturer's directions (Promega) on a Monolight 2010 luminometer (Analytical Luminescence, San Diego, Calif.) […]

N-79 [1] = biological target: T2, N-79 (Homo sapiens, UniProt P03372, E203W/G400V/H216G/Q214A); test: Autoregulated expression system (ATL8/PAL-N-79 + ATL8/PAL-LUC) in 231 human breast cancer cells; type: cell-based; set-up: expressed in transfected cells; host or cells: HepG2 (A20); 231 human breast cancer cells (A21); CHO-S (A22); conditions: 10 nM OHT
T2 sequence (P03372 with tags, fused parts or gaps E203W/Q214A/H216G/G400V): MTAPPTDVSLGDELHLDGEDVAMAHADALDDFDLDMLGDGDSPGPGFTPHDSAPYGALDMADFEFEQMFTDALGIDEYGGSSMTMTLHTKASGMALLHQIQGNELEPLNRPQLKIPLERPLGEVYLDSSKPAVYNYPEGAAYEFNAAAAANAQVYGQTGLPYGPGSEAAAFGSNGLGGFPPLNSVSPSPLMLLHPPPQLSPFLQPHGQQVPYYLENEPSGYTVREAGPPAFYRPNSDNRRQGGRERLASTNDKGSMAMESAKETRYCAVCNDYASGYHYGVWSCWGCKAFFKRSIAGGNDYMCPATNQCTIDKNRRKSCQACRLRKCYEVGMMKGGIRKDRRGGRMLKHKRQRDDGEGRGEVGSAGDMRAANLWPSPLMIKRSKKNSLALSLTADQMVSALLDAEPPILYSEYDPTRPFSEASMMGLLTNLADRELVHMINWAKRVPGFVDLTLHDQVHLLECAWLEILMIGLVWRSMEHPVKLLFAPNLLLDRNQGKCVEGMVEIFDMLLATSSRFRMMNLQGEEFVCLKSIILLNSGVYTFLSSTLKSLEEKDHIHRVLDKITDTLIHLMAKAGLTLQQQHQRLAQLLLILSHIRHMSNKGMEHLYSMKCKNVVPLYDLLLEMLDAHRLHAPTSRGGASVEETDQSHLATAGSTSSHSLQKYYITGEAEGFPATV
Text: (§1) These fragments were digested with KpnI and BamHI and then purified from agarose gels. […] To create C-129, this ER fragment was digested with XbaI and KpnI and then cloned together with the DNA fragment containing 129 amino acids of VP16 into 5.9 kb vector generated by digestion of CMV-hER with XbaI and BamHI. The same strategy was adopted to create C-79 using the DNA fragment containing 79 amino acids of VP16. Therefore, the expression of these chimeras is driven by the same CMV promoter as that of ER-3M. […] The amplified PCR product was digested with NcoI and NotI. […] This fragment and the NcoI/NotI PCR fragment were then inserted together into the 4.3 kb vector, pGL3-ATL8/PAL-LUC, which was created by digesting ATL8/PAL-LUC completely with NcoI and partially with XbaI so that the luciferase gene was replaced by N-79.
(§2) A second plasmid also containing 8 copes of pS2 PAL drives expression of the reporter gene (FIG. 11, ATL8/PAL-LUC).

ER mutant 4.3 = ER mutant 4.3 (Homo sapiens, UniProt P03372, E203W/G215R/G400V/H216P/N217T/Q214V); conditions: 10 μM ligand
ER mutant 4.3, sequence (P03372 whole entry E203W/Q214V/G215R/H216P/N217T/G400V): as the sequence (P03372 whole entry E203W/Q214A/H216G/G400V) above, with A214V, G215R, G216P, N217T counted along it
Method: HepG2 human hepatoma cells were maintained in a humidified 5% CO2 incubator at 37° C. in Dulbecco's Modified Eagle's Medium (DMEM; Sigma; St. Louis, Mo.) supplemented with 10 % charcoal-dextran-stripped fetal bovine serum (CD-FBS; Atlanta Biologicals, Inc; Atlanta, Ga.), 50,000 U/l of penicillin, and 50 mg/liter streptomycin (Life Technologies, Inc.).
Transient transfections in HepG2 cells was accomplished using calcium phosphate co-precipitation (Ausubel et al., 1987). Briefly, cells were plated in 12-well microplates at a density of 1×10^5 cells/well. The next day, the medium was replaced, and 2–6 hours later, precipitated calcium phosphate:DNA co-crystals were added. After 12–16 hours, the cells were shocked for 3 minutes with 20% glycerol in Tris-buffered saline, pH 7.4. Fresh medium and (if any) hormones were added. For MCF-7 and 231 cells, transient transfection was carried out using the Tfx™-20 reagent (Promega; Madison, Wis.) according to the manufacturer's direction with minor changes. Briefly, 1×10^5 cells were plated in each well of 12-well microplates one day before transfection. A 1:3 ratio of DNA to lipid was used. […] Activity was determined using the dual luciferase assay protocol according to the manufacturer's directions (Promega) on a Monolight 2010 luminometer (Analytical Luminescence, San Diego, Calif.) […]

N-79 [2] = biological target: T2, N-79; conditions: CHO-S cells, 10 nM OHT
Text: as §1, §2

[3] = tested on: wild type ER and the ER mutants
Method: HepG2 human hepatoma cells were maintained in a humidified 5% CO2 incubator at 37° C. in Dulbecco's Modified Eagle's Medium (DMEM; Sigma; St. Louis, Mo.) supplemented with 10 % charcoal-dextran-stripped fetal bovine serum (CD-FBS; Atlanta Biologicals, Inc; Atlanta, Ga.), 50,000 U/l of penicillin, and 50 mg/liter streptomycin (Life Technologies, Inc.). MCF-7 cells were routinely maintained in DMEM/Nutrient Mixture F-12 (DMEM/F12) supplemented with 10% heat-inactived FBS, 50,000 U/l of penicillin, and 50 mg/l streptomycin.
Briefly, cells were plated in 12-well microplates at a density of 1×10^5 cells/well. The next day, the medium was replaced, and 2–6 hours later, precipitated calcium phosphate:DNA co-crystals were added. After 12–16 hours, the cells were shocked for 3 minutes with 20% glycerol in Tris-buffered saline, pH 7.4. Fresh medium and (if any) hormones were added. For MCF-7 and 231 cells, transient transfection was carried out using the Tfx™-20 reagent (Promega; Madison, Wis.) according to the manufacturer's direction with minor changes. Briefly, 1×10^5 cells were plated in each well of 12-well microplates one day before transfection. A 1:3 ratio of DNA to lipid was used. The DMEM/F12 medium without serum was used as carrier for the DNA-lipid mixture. After 1 hour incubation with the DNA-lipid-DMEM/F12 at 37° C., the cells were transferred to fresh DMEM/F12 supplemented with 10% CD-FBS, 50,000 U/I of penicillin, 50 mg/l streptomycin and hormones. Transfection on CHO—S cells was described as above for the preparation of ERs extraction except the medium contained 10% CD-NBCS. The cells subjected to either transfection method were harvested 48 hours post-transfection. Reporter assays were performed by lysing the cells in situ with 250 μl of passive lysis buffer (Promega).
The data represent the mean±S.E. of three independent transfections.

N-79 [4] = biological target: T2, N-79; test: Autoregulated expression system (ATL8/PAL-N-79 + ATL8/PAL-LUC) in HepG2 cells; type: cell-based; set-up: expressed in transfected cells; host or cells: HepG2 (A20); 231 human breast cancer cells (A21); CHO-S (A22); conditions: HepG2 human hepatoblastoma cells, 10 nM OHT
Text: as §1, §2

ER 2 = ER 2 (Homo sapiens, UniProt P03372, E203W/G215R/G400V/Q214A); conditions: ATL2/PAL-LUC, 10 nM ligand
ER 2, sequence (P03372 whole entry E203W/Q214A/G215R/G400V): as the sequence (P03372 whole entry E203W/Q214A/H216G/G400V) above, with G215R, G216H counted along it
Method: as §3
Transient transfections in HepG2 cells was accomplished using calcium phosphate co-precipitation (Ausubel et al., 1987). Briefly, cells were plated in 12-well microplates at a density of 1×10^5 cells/well. The next day, the medium was replaced, and 2–6 hours later, precipitated calcium phosphate:DNA co-crystals were added. […] Activity was determined using the dual luciferase assay protocol according to the manufacturer's directions (Promega) on a Monolight 2010 luminometer (Analytical Luminescence, San Diego, Calif.)

[5] = tested on: mutant and chimeric estrogen receptors
[6] = ATL8/PAL-LUC, 2.5 ng expression plasmid, 10 nM OHT

## 4-hydroxytamoxifen [OHT]
Wild type hERα; 10 nM ligand
  agonism on ATL8/cERE-LUC, OHT compared with moxestrol: weaker agonist than moxestrol
  transactivation of ATL8/PAL-LUC, OHT compared with MOX: higher with OHT than with MOX
Wild type hERα; ATL2/PAL-LUC, 10 nM ligand
  transactivation level on two copies of pS2 PAL: undetectable
Wild type hERα; ATL2/cERE-LUC, 10 nM OHT
  agonist activity when bound to the cERE: weak agonist activity
Wild type hERα; ATL8/PAL-LUC, 5 ng expression plasmid, 10 nM OHT
  induction of luciferase activity from ATL8/PAL: 52 fold
ER3M; ATL2/PAL-LUC, 10 nM ligand
  transactivation by OHT compared with MOX: exceeded that seen with MOX
ER3M; [6]
  increase in reporter gene expression by OHT: 117 fold
ER3M; ATL8/PAL-LUC, tamoxifen compared with OHT
  maximal level of transactivation: similar
ER 4.3; ATL2/PAL-LUC, 10 nM ligand
  transactivation by OHT compared with MOX: equal to that seen with MOX
ER 4.3; [6]
  increase in reporter gene expression by OHT: 172 fold
N-79 [1]
  increase in luciferase activity upon addition of OHT: 813 fold
ER mutant 4.3; ATL4/PAL-LUC
  transactivation by OHT, percent of that seen with E2: 45%
ER mutant 4.3; ATL4/cERE-LUC
  OHT-mediated transactivation, percent of that observed with estradiol (E2): 13%
N-79 [2]
  induction upon addition of OHT: 28 fold
[3]; ATL2/PAL-LUC, 10 nM ligand, ER mutants
  agonist character of OHT when pS2 PAL supplied the ERE: full agonist
[3]; ATL2/pS2 ERE-LUC, 10 nM ligand
  transactivation in response to OHT, percent of that seen with MOX: about 30%
[3]; ATL4/PAL-LUC, 10 nM ligand
  OHT transactivation with four copies of pS2 PAL compared with MOX: same level of transactivation as MOX
[3]; ATL4/cERE-LUC, wild type hERα and ERs 3M and 4.3, 10 nM ligand
  OHT activity, percent of that seen with MOX: 20–25%
[3]; summary, pS2 PAL reporters and the ER mutants
  OHT-mediated activation of transcription on different versions of pS2 PAL reporters: 70–1000 fold
N-79 [4]
  increase in luciferase activity upon addition of OHT: 1027 fold
ER 2
  transactivation by OHT compared with MOX: equal to that seen with MOX

## O=C(c1ccc(OCCN2CCCCC2)cc1)c1c(-c2ccc(O)cc2)sc2cc(O)ccc12 [Raloxifene]
[5]
  transcription activation when bound to mutant and chimeric estrogen receptors: fail to activate transcription
